Measured values as given in patent US20230381170A1, “METHOD FOR TREATING ALS/FTD THROUGH DEGRADATION OF RNA REPEAT EXPANSION” (University of Florida Research Foundation, Incorporated, priority 2020, published 2023).
Where two headings read alike, the source gives them in different places.

What was measured:
[1] = system: r(G2C2)10; experiment: Biolayer interferometry (BLI) binding
Protocol: (§1) Biolayer Interferometry (BLI). BLI studies were performed similarly as previously described (12) using an Octet RED96. Briefly, 5′-biotinylated nucleic acids were folded by heating at 95° C. for 4 min in 10 mM sodium phosphate buffer, pH 7, followed by slowly cooling to room temperature. Then, to the folded RNA were added the following components: 1.386 mL 1×DPBS (21-031-CV, Corning), 180 μL freshly prepared 1% (w/v) BSA, 36 μL 1% (v/v) Tween-20, and 18 μL DMSO (1% final concentration) in a final volume of 1.8 mL. The final concentration of RNA was 0.5 μM. Separately, serial dilutions of the compound of interest were prepared in the same buffer.
(§2) Streptavidin sensors (SA, #18-5019, ForteBio) were equilibrated with buffer for 10 min at room temperature using 96-well black microplate (Greiner; Catalog #: 655209). The following time intervals were used during data acquisition (30° C. with shaking at 1000 rpm): baseline step, 180 s; loading of RNA, 900 s; washing, 180 s; association of compound, 1800 s; and dissociation of compound, 1800 s. The resulting curves were analyzed and processed using Octet Data Analysis software version 9.1 by subtracting the response of the sensors recorded upon incubation with solutions containing compound and no RNA (parallel reference). The data were then fitted assuming reversible binding using the entire time interval for association and dissociation using either 1:1 or the 2:1 heterogeneous binding curve fitting model. The reported Kd,n, kon,n and koff,n values represent the average of two independent experiments.

[2] = system: d(G4C2)8; experiment: Biolayer interferometry (BLI) binding; conditions: for Kd: BLI
Protocol: as §1, §2

[3] = system: r(G2C4)8; experiment: Biolayer interferometry (BLI) binding
Protocol: as §1, §2

[4] = target: T1, Human Topoisomerase II (Homo sapiens, UniProt P11388); experiment: Topoisomerase assay; assay type: biochemical
T1 construct: purchased TopoGen
T1 sequence (P11388 whole entry): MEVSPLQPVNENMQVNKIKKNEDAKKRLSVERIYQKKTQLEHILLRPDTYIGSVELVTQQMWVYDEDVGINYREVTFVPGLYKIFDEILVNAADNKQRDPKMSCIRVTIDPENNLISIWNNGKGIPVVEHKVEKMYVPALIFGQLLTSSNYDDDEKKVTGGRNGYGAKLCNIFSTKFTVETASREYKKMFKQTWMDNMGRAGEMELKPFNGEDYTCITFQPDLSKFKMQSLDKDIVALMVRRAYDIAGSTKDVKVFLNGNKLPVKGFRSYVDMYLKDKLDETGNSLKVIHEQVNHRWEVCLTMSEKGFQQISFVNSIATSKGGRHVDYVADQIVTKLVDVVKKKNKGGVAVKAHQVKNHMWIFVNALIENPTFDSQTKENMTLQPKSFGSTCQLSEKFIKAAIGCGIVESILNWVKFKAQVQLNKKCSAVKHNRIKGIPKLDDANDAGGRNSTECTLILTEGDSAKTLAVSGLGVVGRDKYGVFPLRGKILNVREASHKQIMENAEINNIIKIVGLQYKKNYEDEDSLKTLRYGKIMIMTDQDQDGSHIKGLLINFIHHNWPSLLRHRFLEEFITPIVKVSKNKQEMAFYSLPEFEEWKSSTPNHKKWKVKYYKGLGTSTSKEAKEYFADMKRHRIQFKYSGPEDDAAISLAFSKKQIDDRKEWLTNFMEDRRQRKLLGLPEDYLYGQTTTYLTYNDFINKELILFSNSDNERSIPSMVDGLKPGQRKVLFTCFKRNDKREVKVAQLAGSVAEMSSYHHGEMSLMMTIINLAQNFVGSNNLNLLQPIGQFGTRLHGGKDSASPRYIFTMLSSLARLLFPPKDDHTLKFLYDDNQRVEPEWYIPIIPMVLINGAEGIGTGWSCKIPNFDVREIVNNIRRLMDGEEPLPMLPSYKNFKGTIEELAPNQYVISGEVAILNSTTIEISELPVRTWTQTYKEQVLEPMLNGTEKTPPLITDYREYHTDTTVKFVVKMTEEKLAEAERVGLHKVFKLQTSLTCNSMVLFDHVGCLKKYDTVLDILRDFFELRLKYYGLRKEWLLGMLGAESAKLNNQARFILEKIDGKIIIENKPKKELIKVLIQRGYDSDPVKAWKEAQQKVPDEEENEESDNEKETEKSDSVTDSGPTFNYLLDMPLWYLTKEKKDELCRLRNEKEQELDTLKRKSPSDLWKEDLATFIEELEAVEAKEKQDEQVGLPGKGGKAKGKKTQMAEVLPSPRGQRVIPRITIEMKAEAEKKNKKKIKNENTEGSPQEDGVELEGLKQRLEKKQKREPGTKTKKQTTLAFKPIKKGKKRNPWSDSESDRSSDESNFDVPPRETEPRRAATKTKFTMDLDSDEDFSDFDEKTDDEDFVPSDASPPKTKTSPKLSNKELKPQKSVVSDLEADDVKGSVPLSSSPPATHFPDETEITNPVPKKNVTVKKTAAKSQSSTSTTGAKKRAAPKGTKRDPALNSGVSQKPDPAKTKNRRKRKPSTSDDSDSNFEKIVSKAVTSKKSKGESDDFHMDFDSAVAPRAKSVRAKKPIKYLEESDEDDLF
Protocol: Topoisomerase Assay. Topoisomerase inhibition was assessed in vitro using the TopoGen Human Topoisomerase II Assay Kit per manufacturer's recommended protocol. Samples were run on a 1% agarose gel post-stained with ethidium bromide. Topoisomerase inhibition was quantified as a percentage of linearized DNA compared to the positive control compound VP-16 supplied.

[5] = system: r(G4C2)exp; experiment: ASO-Bind-Map target profiling in patient-derived LCLs; assay type: cell-based, human; conditions: ASO 100 nM
Protocol: Target profiling by ASO-Bind-Map. LCLs were first treated with compounds overnight at 37° C. and then transfected with G4C2-ASO (100 nM; Table 3). The cells were then incubated for another 24 h at 37° C. followed by extraction of total RNA as described above. The levels of various fragments were then measured by RT-qPCR as described above.

[6] = system: r(G4C2)4; experiment: 1D NMR imino proton monitoring; assay type: binding
Protocol: (§3) Preparation of MNR Samples. RNA constructs were purchased from GE Dharmacon, Inc. After deprotection and desalting, RNAs were dissolved in buffer comprising 10 mM sodium phosphates and 100 mM LiCl at pH 7.0 and reannealed by heating to 95° C. for 4 min followed by cooling to room temperature. Solvent consisted of H2O, to which 20 μL of D2O was added to provide a lock signal. Final concentrations of RNA were 100 μM for 1D NMR spectroscopy and 400 μM of RNA for 2D NMR spectroscopy. Dimeric derivatives 2 and 3 were dissolved in DMSO-d6 to 10 mM concentrations.
(§4) NMR Spectroscopy. NMR spectra were acquired on samples in Shigemi tubes using Bruker Avance 600 and 700 MHz spectrometers equipped with cryoprobes. 1D spectra were recorded on free form RNA, to which 2 and 3 was added to final compound/RNA molar ratios of 0.5 and 1.0. 2D spectra were acquired with 400 ms mixing times on samples containing 3 at 1.0 compound/RNA molar ratio. In 1D and 2D NMR spectra, WATERGATE and excitation pulse sequences were used to suppress the water signal, respectively (53-55). Proton chemical shifts were referenced internally to 4,4-dimethyl-4-silapentane-1-sulfonic acid (DSS, 0.1 mM). 1D spectra were processed using MestreNOVA software. 2D spectra were processed using NMRPipe and assigned using SPARKY (56).

[7] = system: r(G2C2)4; experiment: 1D NMR imino proton monitoring; assay type: binding; conditions: hairpin with fully paired stem
Protocol: as §3, §4

[8] = system: r(G4C2)8; experiment: Biolayer interferometry (BLI) binding
Protocol: as §1
The resulting curves were analyzed and processed using Octet Data Analysis software version 9.1 by subtracting the response of the sensors recorded upon incubation with solutions containing compound and no RNA (parallel reference). The data were then fitted assuming reversible binding using the entire time interval for association and dissociation using either 1:1 or the 2:1 heterogeneous binding curve fitting model. The reported Kd,n, kon,n and koff,n values represent the average of two independent experiments.

[9] = system: Poly(GP); experiment: Poly(GP) sandwich immunoassay in brain of +/+PWR500 mice; assay type: in vivo, mouse
Protocol: Therapeutic Efficacy in a c9ALS/FD mouse model. All animal studies were completed as approved by the Scripps Florida Institutional Animal Care and Use Committee. A total of 24 mice (12+/+PWR500 [7 Male and 5 Female] and 12 WT [6 Male and 6 Female]) mice, age- and gender-matched and ranging in age from 18-22 weeks old were used in therapeutic efficacy studies (Table 6). Mice were anesthetized by intraperitoneal (i.p.) injection of 10 mg/mL Ketamine:1 mg/mL Xylazine solution. Intracerebroventricular (ICV) stereotactic injections of 10 μL of 7 (33 nmol) were administered into the right ventricle using the following coordinates: 0.2 mm posterior and 1.0 mm lateral to the right from the bregma and 3 mm deep. Mice were treated with 7 or vehicle consisting of 1% DMSO in Saline. Three weeks post-treatment, mice were euthanized, and tissue was harvested for study.
Measuring Poly(GP) by MSD. Postmortem brain tissue was harvested and sliced sagittal at the midline. The left hemisphere was frozen for protein and RNA analysis. The left hemisphere of each brain was homogenized in 300 μL of ice-cold Tris-EDTA buffer with 2× protease inhibitors. […] Protein concentrations were measured by BCA assay (Pierce Biotechnology) and Poly(GP) was measured as described above. Statistical analysis was measured using an unpaired t-test with Welch's correction.

SMILES	selective for r(G4C2)8 over r(G2C2)10 [1] [fold]	Kd ([1]; BLI, read-out: Kd, 1) [nM]	selective for r(G4C2)8 over d(G4C2)8 [2] [fold]	Kd ([2]; read-out: Kd, 1) [nM]	Kd ([2]; read-out: Kd, 2) [nM]	selective for r(G4C2)8 over r(G2C4)8 [3] [fold]	Kd ([3]; BLI, read-out: Kd, 1) [nM]	topoisomerase activity in vitro [4]	intron 1 levels of C9orf72 mRNA in competition with G4C2-ASO [5]	complex formation, imino proton region 1D NMR [6]	changes in 1D NMR spectrum upon addition of compound [7]	dissociation rate (koff) compared to 2 ([8]; BLI)	Kd ([8]; BLI, read-out: Kd) [nM]	Kd ([8]; BLI, read-out: Kd, 2) [nM]	bound more avidly to r(G4C2)8 than 2 ([8]; Kd relative to 2) [fold]	reduction of Poly(GP) ([9]; 33 nmol ICV, three weeks, brain) [%]	actin protein expression (control) ([9]; +/+PWR500 or WT mice)
Cc1c2ccncc2c(C)c2c1[nH]c1ccc(OCCOCCOCCNCCOCCOCCOc3ccc4[nH]c5c(C)c6ccncc6c(C)c5c4c3)cc12 [Compound 3]	~200	800	~225	900	3600	~10	400	did not inhibit	dose-dependent increase	verified	no changes were observed	slower dissociation rate	4 ± 0.07	900	~13		
CCOC(=O)C1=C(Nc2ccccc2)S/C(=C\c2ccc(OCCOCCOCCOCCNC(=O)CCC(=O)N(CCOCCOCCOc3ccc4[nH]c5c(C)c6ccncc6c(C)c5c4c3)CCOCCOCCOc3ccc4[nH]c5c(C)c6ccncc6c(C)c5c4c3)c(O)c2)C1=O [Compound 7]																74±24	no decrease
